Source: patent US20240246954A1, “COMPOSITIONS AND METHODS FOR INHIBITING KRAS” (TheRas, Inc., priority 2021, published 2024)
pIC50: −log10 of the molar value.

What was measured:
[1] = target: T1, Avi-KRAS G12D (1-169) GppNHp/RAF1 RBD-3×FLAG (52-151) (Homo sapiens, UniProt P01116, G12D); assay: HTRF Raf1-KRAS G12D-GppNHp disruption assay; assay type: biochemical; details: 1 h incubation
T1 construct: Avi-KRAS G12D (1-169) GppNHp
In short: (§1)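 Compounds titrated from 100 μM in a 10-point series, incubated with protein mix 1 h at room temperature, then HTRF reagents a further 1 h. Time-resolved fluorescence read (excitation 320 nm, emission 615 nm); activity expressed as percentage of DMSO control.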

[2] = target: T2, Avi-KRAS G12D/Q25A (1-169) GppNHp/3×FLAG-PI3KCA (157-299) (Homo sapiens, UniProt P01116, G12D/Q25A); assay: HTRF PI3KCA-KRAS G12D/Q25A-GppNHp disruption assay; assay type: biochemical; details: 1 h incubation
T2 construct: Avi-KRAS G12D/Q25A (1-169) GppNHp
In short: as §1

T1 sequence (P01116 1-169 isoform P01116-2 G12D limits assumed): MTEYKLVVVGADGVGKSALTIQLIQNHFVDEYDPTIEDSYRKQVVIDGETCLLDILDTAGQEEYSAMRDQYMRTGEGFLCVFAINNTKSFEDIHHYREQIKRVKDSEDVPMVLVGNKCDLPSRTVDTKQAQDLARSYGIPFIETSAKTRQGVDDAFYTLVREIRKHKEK
T2 sequence (P01116 1-169 isoform P01116-2 G12D/Q25A limits assumed): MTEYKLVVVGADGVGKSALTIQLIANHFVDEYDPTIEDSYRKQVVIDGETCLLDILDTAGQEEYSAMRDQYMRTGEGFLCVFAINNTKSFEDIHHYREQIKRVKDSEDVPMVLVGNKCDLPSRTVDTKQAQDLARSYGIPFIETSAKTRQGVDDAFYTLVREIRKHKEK

| SMILES | pIC50 [1] | pIC50 [2] |
| --- | --- | --- |
| Nc1nc2c(-c3c(-c4ccoc4)cc4c(N5CC6CCC(C5)N6)nc(OCC56CCCN5CCC6)nc4c3F)ccc(F)c2s1 [Compound 159] | 6.00 to 7.00 | 4.52 to 5.00 |
| CN1CC(F)(F)C[C@H]1COc1nc(N2CCNCC2)c2cc(C(F)(F)F)c(-c3ccc(F)c4sc(N)nc34)c(F)c2n1 [Compound 160] | 4.52 to 5.00 | 4.52 to 5.00 |
| Oc1cc(-c2c(Cl)cc3c(N4CC5CCC(C4)N5)nc(OCC45CCCN4CCC5)nc3c2F)c2ccccc2c1 [Compound 161] | 5.00 to 6.00 | 5.00 to 6.00 |
| NC(=O)N1CCN(c2nc(OCC34CCCN3CCC4)nc3c(F)c(-c4ccc(F)c5sc(N)nc45)c(Cl)cc23)CC1 [Compound 162] | 4.52 to 5.00 | 4.52 to 5.00 |
| CN(c1nc(OCC23CCCN2CCC3)nc2c(F)c(-c3ccc(F)c4sc(N)nc34)c(-c3ccoc3)cc12)C1CN(C(=O)CN)C1 [Compound 163] | 4.52 to 5.00 | 4.52 to 5.00 |
| CN(c1nc(OCC23CCCN2CCC3)nc2c(F)c(-c3ccc(F)c4sc(N)nc34)c(Cl)cc12)C1CN(C(=O)CN)C1 [Compound 164] | 4.52 to 5.00 | 4.52 to 5.00 |
| NC(=O)N1CCN(c2nc(OCC34CCCN3CCC4)nc3c(F)c(-c4ccc(F)c5sc(N)nc45)c(C(F)(F)F)cc23)CC1 [Compound 165, 4-(7-(2-amino-7-fluorobenzo[d]thiazol-4-yl)-8-fluoro-2-((tetrahydro-1H-pyrrolizin-7a(5H)-yl)methoxy)-6-(trifluoromethyl)quinazolin-4-yl)piperazine-1-carboxamide] | 4.52 to 5.00 | 4.52 to 5.00 |
| CN(c1nc(OC[C@@H]2CCCN2CCF)nc2c(F)c(-c3ccc(F)c4sc(N)nc34)c(C(F)(F)F)cc12)C1CNC1 [Compound 166] | 4.52 to 5.00 | 4.52 to 5.00 |
| CCN(c1nc(OC[C@@H]2CCCN2C)nc2c(F)c(-c3ccc(F)c4sc(N)nc34)c(C(F)(F)F)cc12)C1CNC1 [Compound 170] | 4.52 to 5.00 | 4.52 to 5.00 |
| CN1CCC[C@H]1COc1nc(N2CCNCC2)c2cc(CC#N)c(-c3ccc(F)c4sc(N)nc34)c(F)c2n1 [Compound 175, 2-[7-(2-amino-7-fluoro-1,3-benzothiazol-4-yl)-8-fluoro-2-[[(2S)-1-methylpyrrolidin-2-yl]methoxy]-4-piperazin-1-yl-quinazolin-6-yl]acetonitrile] | 4.52 to 5.00 | 5.00 to 6.00 |
| CN1CCC[C@H]1COc1nc(N2CCNCC2)c2cc(-c3cnn(C)c3)c(-c3ccc(F)c4sc(N)nc34)c(F)c2n1 [Compound 176] | 4.52 to 5.00 | 4.52 to 5.00 |
| CCc1cc2c(N3CCNCC3)nc(OC[C@@H]3CCCN3C)nc2c(F)c1-c1ccc(F)c2sc(N)nc12 [Compound 177, 4-(6-ethyl-8-fluoro-2-(((S)-1-methylpyrrolidin-2-yl)methoxy)-4-(piperazin-1-yl)quinazolin-7-yl)-7-fluorobenzo[d]thiazol-2-amine] | 4.52 to 5.00 | 4.52 to 5.00 |
| N#CCCN1CCC[C@H]1COc1nc(NC2CNC2)c2cc(Cl)c(-c3ccc(F)c4sc(N)nc34)c(F)c2n1 [Compound 178] | 4.52 to 5.00 | 4.52 to 5.00 |
| CC(C)N(c1nc(OC[C@@H]2CCCN2C)nc2c(F)c(-c3ccc(F)c4sc(N)nc34)c(Cl)cc12)C1CNC1 [Compound 180] | 4.52 to 5.00 | 4.52 to 5.00 |
| NCC(=O)N1CCN(c2nc(OC[C@]34CCCN3C[C@H](F)C4)nc3c(F)c(-c4ccc(F)c5sc(N)nc45)c(C(F)(F)F)cc23)CC1 [Compound 181] | 5.00 to 6.00 | 5.00 to 6.00 |
| CN(c1nc(OCC23CCCN2CCC3)nc2c(F)c(-c3ccc(F)c4sc(N)nc34)c(Cl)cc12)C1CN(C(N)=O)C1 [Compound 182] | 5.00 to 6.00 | 4.52 to 5.00 |
| CN1CCC[C@H]1COc1nc(N(CCC#N)C2CN(C(=O)CN)C2)c2cc(Cl)c(-c3ccc(F)c4sc(N)nc34)c(F)c2n1 [Compound 183] | 4.52 to 5.00 | 4.52 to 5.00 |
| NC(=O)N1CCN(c2nc(OCC34CCCN3CCC4)nc3c(F)c(-c4ccc(F)c5sc(N)nc45)c(-c4ccoc4)cc23)CC1 [Compound 186] | 4.52 to 5.00 | 4.52 to 5.00 |
| Nc1nc2c(-c3c(C(F)(F)F)cc4c(N5CCNCC5)nc(OCC56CCCN5CCC6)nc4c3F)ccc(F)c2o1 [Compound 189] | 5.00 to 6.00 | 5.00 to 6.00 |
| CC1(Nc2nc(OCC34CCCN3CCC4)nc3c(F)c(-c4ccc(F)c5sc(N)nc45)c(Cl)cc23)CNC1 [Compound 190] | 5.00 to 6.00 | 5.00 to 6.00 |
| CN1CCC[C@H]1COc1nc(N2CCNCC2)c2cc(OC(F)(F)F)c(-c3ccc(F)c4sc(N)nc34)c(F)c2n1 [Compound 191] | 5.00 to 6.00 | 5.00 to 6.00 |
| Nc1nc2c(-c3c(Cl)cc4c(NC5CNC5)nc(OCC56CCCN5CCC6)nc4c3F)ccc(F)c2o1 [Compound 192] | 5.00 to 6.00 | 5.00 to 6.00 |

| SMILES | pIC50 [1] | pIC50 [2] |
| --- | --- | --- |
| CCN(c1nc(OC[C@@H]2CCCN2C)nc2c(F)c(-c3ccc(F)c4sc(N)nc34)c(Cl)cc12)C1CNC1 [Compound 196] | 4.52 to 5.00 | 4.52 to 5.00 |
| CCN(c1nc(OC[C@@H]2CCCN2C)nc2c(F)c(-c3ccc(F)c4sc(N)nc34)c(Cl)cc12)C1CN(C(=O)CN)C1 [Compound 197] | 4.52 to 5.00 | 4.52 to 5.00 |
| CC1(C)CN2CCCC2(COc2nc(N3CCNCC3)c3cc(C(F)(F)F)c(-c4ccc(F)c5sc(N)nc45)c(F)c3n2)C1 (stereo not shown) [Compound 198] | 5.00 to 6.00 | 5.00 to 6.00 |
| CN(c1nc(OCC23CCCN2CC(C)(C)C3)nc2c(F)c(-c3ccc(F)c4sc(N)nc34)c(C(F)(F)F)cc12)C1CNC1 (stereo not shown) [Compound 201] | 4.52 to 5.00 | 4.52 to 5.00 |
| NCC(=O)N1CC[C@@H]2[C@H]1CN2c1nc(OCC23CCCN2CCC3)nc2c(F)c(-c3ccc(F)c4sc(N)nc34)c(C(F)(F)F)cc12 [Compound 202] | 6.00 to 7.00 | 5.00 to 6.00 |
| CN1CCC[C@H]1COc1nc(N2CCNCC2)c2cc(C3(C#N)CCC3)c(-c3ccc(F)c4sc(N)nc34)c(F)c2n1 [Compound 203, 1-[7-(2-amino-7-fluoro-1,3-benzothiazol-4-yl)-8-fluoro-2-[[(2S)-1-methylpyrrolidin-2-yl]methoxy]-4-piperazin-1-yl-quinazolin-6-yl]cyclobutanecarbonitrile] | 4.52 to 5.00 | 4.52 to 5.00 |
| CN(c1nc(OC[C@@H]2CC(F)(F)CN2C)nc2c(F)c(-c3ccc(F)c4sc(N)nc34)c(C(F)(F)F)cc12)C1CNC1 [Compound 204] | 4.52 to 5.00 | 4.52 to 5.00 |
| Cc1cc2c(N3CCNCC3)nc(OC[C@@H]3CCCN3C)nc2c(F)c1-c1ccc(F)c2sc(N)nc12 [Compound 205] | 4.52 to 5.00 | 4.52 to 5.00 |
| Nc1nc2c(-c3c(C(F)(F)F)cc4c(N5CCNCC5)nc(OC[C@@]56CCCN5C[C@H](F)C6)nc4c3F)ccc(F)c2s1 [Compound 206] | 6.00 to 7.00 | 5.00 to 6.00 |
| CN1CCC[C@H]1COc1nc(N(CCO)C2CNC2)c2cc(Cl)c(-c3ccc(F)c4sc(N)nc34)c(F)c2n1 [Compound 208] | 4.52 to 5.00 | 4.52 to 5.00 |
| C[C@@H]1CNCCN1c1nc(OC[C@]23CCCN2C[C@H](F)C3)nc2c(F)c(-c3ccc(F)c4sc(N)nc34)c(C(F)(F)F)cc12 [Compound 209] | 6.00 to 7.00 | 5.00 to 6.00 |
| C[C@@H]1CN(c2nc(OC[C@]34CCCN3C[C@H](F)C4)nc3c(F)c(-c4ccc(F)c5sc(N)nc45)c(C(F)(F)F)cc23)CCN1 [Compound 210] | 5.00 to 6.00 | 4.52 to 5.00 |
| Nc1nc2c(-c3c(C(F)(F)F)cc4c(N5CCNCC5)nc(OCC56CCCN5CC(F)(F)C6)nc4c3F)ccc(F)c2s1 (stereo not shown) [Compound 211] | 5.00 to 6.00 | 4.52 to 5.00 |
| C[C@@H]1CN(c2nc(OC[C@@]34CCCN3C[C@H](F)C4)nc3c(F)c(-c4ccc(F)c5sc(N)nc45)c(C(F)(F)F)cc23)CCN1 [Compound 212] | 6.00 to 7.00 | 5.00 to 6.00 |
| C[C@@H]1CN(c2nc(OC[C@]34CCCN3C[C@H](F)C4)nc3c(F)c(-c4ccc(F)c5sc(N)nc45)c(C(F)(F)F)cc23)[C@@H](C)CN1 [Compound 214] | 6.00 to 7.00 | 4.52 to 5.00 |
| C[C@@H]1CN(c2nc(OC[C@]34CCCN3C[C@H](F)C4)nc3c(F)c(-c4ccc(F)c5sc(N)nc45)c(C(F)(F)F)cc23)C[C@H](C)N1 [Compound 215] | 5.00 to 6.00 | 4.52 to 5.00 |
| COc1cc2c(N3CCNCC3)nc(OCC34CCCN3CCC4)nc2c(F)c1-c1ccc(F)c2sc(N)nc12 [Compound 216, 7-fluoro-4-(8-fluoro-6-methoxy-4-(piperazin-1-yl)-2-((tetrahydro-1H-pyrrolizin-7a(5H)-yl)methoxy)quinazolin-7-yl)benzo[d]thiazol-2-amine] | 5.00 to 6.00 | 5.00 to 6.00 |
| CN1CCC[C@H]1COc1nc(N2CCNCC2)c2cc(C(F)F)c(-c3ccc(F)c4sc(N)nc34)c(F)c2n1 [Compound 217, 4-(6-(difluoromethyl)-8-fluoro-2-(((S)-1-methylpyrrolidin-2-yl)methoxy)-4-(piperazin-1-yl)quinazolin-7-yl)-7-fluorobenzo[d]thiazol-2-amine] | 5.00 to 6.00 | 5.00 to 6.00 |
| C[C@H]1CNCCN1c1nc(OC[C@@]23CCCN2C[C@@H](F)C3)nc2c(F)c(-c3ccc(F)c4sc(N)nc34)c(C(F)(F)F)cc12 [Compound 222] | 5.00 to 6.00 | 4.52 to 5.00 |
| C[C@@H]1CN(c2nc(OC[C@@]34CCCN3C[C@@H](F)C4)nc3c(F)c(-c4ccc(F)c5sc(N)nc45)c(C(F)(F)F)cc23)[C@@H](C)CN1 [Compound 224] | 4.52 to 5.00 | 4.52 to 5.00 |
| C[C@@H]1CN(c2nc(OC[C@@]34CCCN3C[C@@H](F)C4)nc3c(F)c(-c4ccc(F)c5sc(N)nc45)c(C(F)(F)F)cc23)CCN1 [Compound 225] | 5.00 to 6.00 | 4.52 to 5.00 |
| Nc1nc2c(-c3c(C(F)F)cc4c(N5CCNCC5)nc(OCC56CCCN5CCC6)nc4c3F)ccc(F)c2s1 [Compound 227] | 5.00 to 6.00 | 5.00 to 6.00 |
